Assay results taken from US8580829B2 (Boehringer Ingelheim International GmbH, priority 2010, dated 2013).

What was measured:
[1] = biological target: T1, recombinant human FLAP protein (Homo sapiens, UniProt P20292); assay: FLAP binding assay (Scintillation Proximity Assay, displacement of [125I]L-691,831); conditions: recombinant human FLAP membranes, [125I]L-691,831 probe; read-out: FLAP SPA IC50
T1 construct: made in house; host or cells: Sf9 insect cells (100,000 x g membrane fraction)
T1 sequence (P20292 1-161): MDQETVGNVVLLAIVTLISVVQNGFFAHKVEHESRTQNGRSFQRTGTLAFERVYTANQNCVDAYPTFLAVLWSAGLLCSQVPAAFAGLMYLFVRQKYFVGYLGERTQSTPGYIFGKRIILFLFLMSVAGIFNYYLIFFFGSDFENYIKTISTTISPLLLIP
Summary of the method: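 WGA scintillation proximity beads were stirred 1 h with 5 μg of FLAP-containing membrane protein. The membranes came from baculovirus Sf9 cells, Dounce-lysed and spun to a 100,000×g pellet in buffer at pH 7.5.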

[2] = test system: synthesis of LTB4 in human whole blood; assay: human whole blood LTB4 production inhibition assay; type: cell-based; conditions: Homo sapiens, heparinized human whole blood, calcimycin 20 μM; read-out: hWB LTB4 IC50
Summary of the method: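 LTB4 in plasma was quantified by HTRF immunoassay. Before that, compound-treated heparinized whole blood (15 min, 37 °C) received 20 μM final calcimycin for a further 30 min at 37 °C, followed by centrifugation at 1500×g.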

**Q.** `Nc1ncc(-c2ccc(C3(c4noc(-c5cnn(CC(=O)N6CCOCC6)c5)n4)CCC3)cc2)cn1` [Example 134, 2-[4-(3-{1-[4-(2-Amino-pyrimidin-5-yl)-phenyl]-cyclobutyl}-1,2,4-oxadiazol-5-yl)-pyrazol-1-yl]-1-morpholin-4-yl-ethanone] was tested. Which IC50 [1] did it give?
**A.** 5.8 nM

**Q.** And the IC50 [2]?
**A.** 120 nM

**Q.** What does the source list for `CN(C)S(=O)(=O)n1cc(-c2nc(C3(c4ccc(-c5cnc(N)nc5)cc4)CCC3)no2)cn1` [Example 135]?
**A.** IC50 [1]: 10.4 nM; IC50 [2]: 190 nM

**Q.** With `CN(C)C(=O)n1cc(-c2nc(C3(c4ccc(-c5cnc(N)nc5)cc4)CCC3)no2)cn1` [Example 136, 4-(3-{1-[4-(2-Amino-pyrimidin-5-yl)-phenyl]-cyclobutyl}-1,2,4-oxadiazol-5-yl)-pyrazole-1-carboxylic acid dimethylamide] as the compound, how does the IC50 [1] read?
**A.** 1.5 nM

**Q.** What about the IC50 [2] of the same compound?
**A.** 66 nM

**Q.** How did the IC50 [1] turn out when `Nc1ncc(-c2ccc(C3(c4noc(-c5cnn(CC(=O)N6CCCC6)c5)n4)CCC3)cc2)cn1` [Example 137, 2-[4-(3-{1-[4-(2-Amino-pyrimidin-5-yl)-phenyl]-cyclobutyl}-1,2,4-oxadiazol-5-yl)-pyrazol-1-yl]-1-pyrrolidin-1-yl-ethanone] was run?
**A.** 7.7 nM

**Q.** What about the IC50 [2] of the same compound?
**A.** 170 nM

**Q.** Which IC50 [1] does the source give for `CCN(C)C(=O)Cn1cc(-c2nc(C3(c4ccc(-c5cnc(N)nc5)cc4)CCC3)no2)cn1` [Example 138, 2-[4-(3-{1-[4-(2-Amino-pyrimidin-5-yl)-phenyl]-cyclobutyl}-1,2,4-oxadiazol-5-yl)-pyrazol-1-yl]-N-ethyl-N-methyl-acetamide] here?
**A.** 2.8 nM

**Q.** What about the IC50 [2] of the same compound?
**A.** 38 nM

**Q.** `CC(C)N(C)C(=O)Cn1cc(-c2nc(C3(c4ccc(-c5cnc(N)nc5)cc4)CCC3)no2)cn1` [Example 139, 2-[4-(3-{1-[4-(2-Amino-pyrimidin-5-yl)-phenyl]-cyclobutyl}-1,2,4-oxadiazol-5-yl)-pyrazol-1-yl]-N-isopropyl-N-methyl-acetamide] was tested. Which IC50 [1] did it give?
**A.** 2.6 nM

**Q.** What about the IC50 [2] of the same compound?
**A.** 95 nM

**Q.** With `Nc1ncc(-c2ccc(C3(c4noc(-c5cnn(CC(=O)NCC(F)(F)F)c5)n4)CCC3)cc2)cn1` [Example 140, 2-[4-(3-{1-[4-(2-Amino-pyrimidin-5-yl)-phenyl]-cyclobutyl}-1,2,4-oxadiazol-5-yl)-pyrazol-yl]-N-(2,2,2-trifluoro-ethyl)-acetamide] as the compound, how does the IC50 [1] read?
**A.** 4.4 nM

**Q.** And the IC50 [2]?
**A.** 68 nM

**Q.** Which results are given for `CN(C(=O)Cn1cc(-c2nc(C3(c4ccc(-c5cnc(N)nc5)cc4)CCC3)no2)cn1)C1CC1` [Example 141, 2-[4-(3-{1-[4-(2-Amino-pyrimidin-5-yl)-phenyl]-cyclobutyl]-1,2,4-oxadiazol-5-yl)-pyrazol-1-yl]-N-cyclopropyl-N-methyl-acetamide]?
**A.** IC50 [1]: 0.9 nM; IC50 [2]: 43 nM

**Q.** What does the source list for `Nc1ncc(-c2ccc(C3(c4noc(-c5cccnc5)n4)CCC3)cc2)cn1` [Example 143, 5-{4-[1-(5-pyridin-3-yl-1,2,4-oxadiazol-3-yl)-cyclobutyl]-phenyl}-pyrimidin-2-ylamine]?
**A.** IC50 [1]: 2.2 nM; IC50 [2]: 250 nM

**Q.** Which IC50 [1] does the source give for `Nc1ncc(-c2ccc(C3(c4noc(-c5ccccc5)n4)CCC3)cc2)cn1` [Example 144, 5-{4-[1-(5-Phenyl-1,2,4-oxadiazol-3-yl)-cyclobutyl]-phenyl}-pyrimidin-2-ylamine] here?
**A.** 1.4 nM

**Q.** And the IC50 [2]?
**A.** 470 nM

**Q.** Which IC50 [1] does the source give for `Nc1ncc(-c2ccc(C3(c4noc(-c5ccccn5)n4)CCOCC3)cc2)cn1` [Example 145, 5-{4-[4-(5-pyridin-2-yl-1,2,4-oxadiazol-3-yl)-tetrahydro-pyran-4-yl]-phenyl}-pyrimidin-2-ylamine] here?
**A.** 78 nM

**Q.** What about the IC50 [2] of the same compound?
**A.** > 5000 nM

**Q.** How did the IC50 [1] turn out when `Nc1ncc(-c2ccc(C3(c4noc(-c5cccnc5)n4)CCOCC3)cc2)cn1` [Example 146, 5-{4-[4-(5-Pyridin-3-yl-1,2,4-oxadiazol-3-yl)-tetrahydro-pyran-4-yl]-phenyl}-pyrimidin-2-ylamine] was run?
**A.** 27 nM

**Q.** And the IC50 [2]?
**A.** 840 nM

**Q.** `Nc1ncc(-c2ccc(C3(c4noc(-c5ccncc5)n4)CCOCC3)cc2)cn1` [Example 147, 5-{4-[4-(5-Pyridin-4-yl-1,2,4-oxadiazol-3-yl)-tetrahydro-pyran-4-yl]-phenyl}-pyrimidin-2-ylamine] was tested. Which IC50 [1] did it give?
**A.** 33 nM

**Q.** And the IC50 [2]?
**A.** 1700 nM

**Q.** Which results are given for `Cc1cc(-c2nc(C3(c4ccc(-c5cnc(N)nc5)cc4)CCOCC3)no2)n(C)n1` [Example 148, 5-(4-{4-[5-(2,5-Dimethyl-2H-pyrazol-3-yl)-1,2,4-oxadiazol-3-yl]-tetrahydro-pyran-4-yl}-phenyl)-pyrimidin-2-ylamine]?
**A.** IC50 [1]: 46 nM; IC50 [2]: 3300 nM

**Q.** With `Nc1ncc(-c2ccc(C3(c4noc(-c5ccccc5)n4)CCOCC3)cc2)cn1` [Example 149, 5-{4-[4-(5-Phenyl-1,2,4-oxadiazol-3-yl)-tetrahydro-pyran-yl]-phenyl}-pyrimidin-2-ylamine] as the compound, how does the IC50 [1] read?
**A.** 15 nM

**Q.** And the IC50 [2]?
**A.** > 5000 nM

**Q.** With `Nc1ncc(-c2ccc(C3(c4noc(Cc5ccccc5)n4)CCOCC3)cc2)cn1` [Example 150, 5-{4-[4-(5-Benzyl-1,2,4-oxadiazol-3-yl)-tetrahydro-pyran-4-yl]-phenyl}-pyrimidin-2-ylamine] as the compound, how does the IC50 [1] read?
**A.** 180 nM

**Q.** And the IC50 [2]?
**A.** > 5000 nM

**Q.** How did the IC50 [1] turn out when `Nc1ncc(-c2ccc(C3(c4noc(COCc5ccccc5)n4)CCOCC3)cc2)cn1` [Example 151, 5-{4-[4-(5-Benzyloxymethyl-1,2,4-oxadiazol-3-yl)-tetrahydro-pyran-4-yl]-phenyl}-pyrimidin-2-ylamine] was run?
**A.** 210 nM

**Q.** What about the IC50 [2] of the same compound?
**A.** > 5000 nM

**Q.** For `Cc1ccc(-c2nc(C3(c4ccc(-c5cnc(N)nc5)cc4)CCC3)no2)cn1` [Example 152, 5-(4-{1-[5-(6-Methyl-pyridin-3-yl)-1,2,4-oxadiazol-3-yl]-cyclobutyl}-phenyl)-pyrimidin-2-ylamine], which IC50 [1] is on record?
**A.** 3.5 nM

**Q.** What about the IC50 [2] of the same compound?
**A.** 210 nM

**Q.** For `Nc1ncc(-c2ccc(C3(c4noc(-c5c[nH]cn5)n4)CCC3)cc2)cn1` [Example 153, 5-(4-{1-[5-(1H-Imidazol-4-yl)-1,2,4-oxadiazol-3-yl]-cyclobutyl}-phenyl)-pyrimidin-2-ylamine], which IC50 [1] is on record?
**A.** 2.5 nM

**Q.** And the IC50 [2]?
**A.** 270 nM

**Q.** Which IC50 [1] does the source give for `Cc1ccc(-c2nc(C3(c4ccc(-c5cnc(N)nc5)cc4)CCCCC3)no2)cn1` [Example 154, 5-(4-{1-[5-(6-Methyl-pyridin-3-yl)-1,2,4-oxadiazol-3-yl]-cyclohexyl}-phenyl)-pyrimidin-2-ylamine] here?
**A.** 1.7 nM

**Q.** And the IC50 [2]?
**A.** 810 nM

**Q.** With `Cc1ccc(-c2nc(C3(c4ccc(-c5cnc(N)nc5)cc4)CCCC3)no2)cn1` [Example 155, 5-(4-{1-[5-(6-Methyl-pyridin-3-yl)-1,2,4-oxadiazol-3-yl]-cyclopentyl}-phenyl)-pyrimidin-2-ylamine] as the compound, how does the IC50 [1] read?
**A.** 2.8 nM

**Q.** What about the IC50 [2] of the same compound?
**A.** 400 nM

**Q.** `Nc1ncc(-c2ccc(C3(c4noc(-c5nc[nH]n5)n4)CCC3)cc2)cn1` [Example 156, 5-(4-{1-[5-(2H-1,2,4-Triazol-3-yl)-1,2,4-oxadiazol-3-yl]-cyclobutyl}-phenyl)-pyrimidin-2-ylamine] was tested. Which IC50 [1] did it give?
**A.** 13 nM

**Q.** What about the IC50 [2] of the same compound?
**A.** > 5000 nM

**Q.** `Cc1cc(-c2nc(C3(c4ccc(-c5cnc(N)nc5)cc4)CCC3)no2)on1` [Example 157] was tested. Which IC50 [1] did it give?
**A.** 4.1 nM

**Q.** And the IC50 [2]?
**A.** 690 nM

**Q.** With `Nc1ncc(-c2ccc(C3(c4noc(-c5cnccn5)n4)CCC3)cc2)cn1` [Example 158, 5-{4-[1-(5-Pyrazin-2-yl-1,2,4-oxadiazol-3-yl)-cyclobutyl]-phenyl}-pyrimidin-2-ylamine] as the compound, how does the IC50 [1] read?
**A.** 5.7 nM

**Q.** And the IC50 [2]?
**A.** 360 nM

**Q.** What does the source list for `Nc1ncc(-c2ccc(C3(c4noc(-c5cncnc5)n4)CCC3)cc2)cn1` [Example 159, 5-{4-[1-(5-Pyrimidin-5-yl-1,2,4-oxadiazol-3-yl)-cyclobutyl]-phenyl}-pyrimidin-2-ylamine]?
**A.** IC50 [1]: 6 nM; IC50 [2]: 340 nM

**Q.** `Nc1ncc(-c2ccc(C3(c4noc(-c5ccnnc5)n4)CCC3)cc2)cn1` [Example 160, 5-{4-[1-(5-Pyridazin-4-yl-1,2,4-oxadiazol-3-yl)-cyclobutyl]-phenyl}-pyrimidin-2-ylamine] was tested. Which IC50 [1] did it give?
**A.** 6.2 nM

**Q.** And the IC50 [2]?
**A.** 240 nM

**Q.** Which results are given for `Cc1cc(-c2nc(C3(c4ccc(-c5cnc(N)nc5)cc4)CCC3)no2)n(C)n1` [Example 161, 5-(4-{1-[5-(2,5-Dimethyl-2H-pyrazol-3-yl)-1,2,4-oxadiazol-3-yl]-cyclobutyl}-phenyl)-pyrimidin-2-ylamine]?
**A.** IC50 [1]: 6.6 nM; IC50 [2]: 860 nM

**Q.** Which results are given for `CCn1nc(C)cc1-c1nc(C2(c3ccc(-c4cnc(N)nc4)cc3)CCC2)no1` [Example 162, 5-(4-{1-[5-(2-Ethyl-5-methyl-2H-pyrazol-3-yl)-1,2,4-oxadiazol-3-yl]-cyclobutyl}-phenyl)-pyrimidin-2-ylamine]?
**A.** IC50 [1]: 6.4 nM; IC50 [2]: 1000 nM

**Q.** What does the source list for `Cc1nocc1-c1nc(C2(c3ccc(-c4cnc(N)nc4)cc3)CCC2)no1` [Example 163, 5-(4-{1-[5-(3-Methyl-isoxazol-4-yl)-1,2,4-oxadiazol-3-yl]-cyclobutyl}-phenyl)-pyrimidin-2-ylamine]?
**A.** IC50 [1]: 4 nM; IC50 [2]: 450 nM

**Q.** Which results are given for `Cc1noc(C)c1-c1nc(C2(c3ccc(-c4cnc(N)nc4)cc3)CCC2)no1` [Example 164, 5-(4-{1-[5-(3,5-Dimethyl-isoxazol-4-yl)-1,2,4-oxadiazol-3-yl]-cyclobutyl}-phenyl)-pyrimidin-2-ylamine]?
**A.** IC50 [1]: 5.5 nM; IC50 [2]: 570 nM

**Q.** With `Cc1ncc(-c2nc(C3(c4ccc(-c5cnc(N)nc5)cc4)CCC3)no2)cn1` [Example 165, 5-(4-{1-[5-(2-Methyl-pyrimidin-5-yl)-1,2,4-oxadiazol-3-yl]-cyclobutyl}-phenyl)-pyrimidin-2-ylamine] as the compound, how does the IC50 [1] read?
**A.** 6 nM

**Q.** What about the IC50 [2] of the same compound?
**A.** 450 nM

**Q.** Which results are given for `Cc1ncccc1-c1nc(C2(c3ccc(-c4cnc(N)nc4)cc3)CCC2)no1` [Example 167, 5-(4-{1-[5-(2-Methyl-pyridin-3-yl)-1,2,4-oxadiazol-3-yl]-cyclobutyl}-phenyl)-pyrimidin-2-ylamine]?
**A.** IC50 [1]: 5.1 nM; IC50 [2]: 660 nM
